Assays:
UGT2B7 = target: T1, UGT2B7 (Homo sapiens, UniProt P16662); experiment: Covalent adduct formation of NSAIDs-AG with UGT2B7; assay type: binding; conditions: 180 μM, UGT 3.4 μM, 6 h; for covalent adduct formation with UGT2B7 compared with the other diastereomer: R vs S diastereomer
T1 construct: purchased Corning, Inc
T1 sequence (P16662 24-529): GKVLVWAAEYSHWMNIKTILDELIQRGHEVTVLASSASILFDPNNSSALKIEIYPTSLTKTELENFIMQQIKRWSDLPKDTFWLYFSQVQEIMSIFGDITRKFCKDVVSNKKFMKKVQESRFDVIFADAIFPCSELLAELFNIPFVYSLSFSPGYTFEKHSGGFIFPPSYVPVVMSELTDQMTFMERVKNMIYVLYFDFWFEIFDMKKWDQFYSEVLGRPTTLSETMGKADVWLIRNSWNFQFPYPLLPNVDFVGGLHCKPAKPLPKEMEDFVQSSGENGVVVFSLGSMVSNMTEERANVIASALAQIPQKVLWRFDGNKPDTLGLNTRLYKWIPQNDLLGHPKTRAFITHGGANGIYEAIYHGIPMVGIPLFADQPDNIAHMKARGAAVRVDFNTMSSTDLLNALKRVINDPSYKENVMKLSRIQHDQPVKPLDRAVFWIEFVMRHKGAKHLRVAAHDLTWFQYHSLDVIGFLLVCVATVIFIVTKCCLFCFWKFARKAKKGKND
Method: (§1) The concentrations of UGT were set at 3.4 μM by the preliminary experiments on the linearity of covalent adduct formation. The covalent adduct formation of NSAIDs-AG with organelle proteins and UGT was determined according to previous reports on NSAIDs-AG with albumin with some modifications. After a deproteinization of the reaction mixture, methanol/diethyl ether (3:1) was added to the pellet. […] The concentrations of the parent NSAIDs were measured using liquid chromatography-tandem mass spectrometry (LC-MS/MS). Aliquots of 10 μL were injected into the LC-MS/MS system. The LC-MS/MS equipment consisted of an LC system (UltiMate 3000 series, Thermo Fisher Scientific, Inc.) and TSQ Endura Triple Quadrupole Mass Spectrometer with electrospray ionization (Thermo Fisher Scientific, Inc.). Finnigan Xcalibur software (Thermo Fisher Scientific, Inc.) was used for data recording and analysis. Analysis was further performed using a reversed-phase column (COSMOSIL 5C18-MSII, 2.0 mm × 150 mm, 5 μm; Nacalai Tesque, Inc.). The column temperature was set to 40 °C, and the autosampler was maintained at 10 °C. The mobile phase (A; 30% methanol in 8.5 mM ammonium formate and 0.0075% formic acid, and B; 90% methanol in 8.5 mM ammonium formate and 0.0075% formic acid) was pumped at a flow rate of 0.2 mL/min. The initial mobile phase composition was maintained at 30% mobile phase B for 1 min, changed linearly to 90% mobile phase B from 1 to 8 min, maintained for 1 min, returned to 30% mobile phase B from 9 to 10 min, and maintained for 1 min for chromatographic column equilibrium. The MS scan was operated in positive ionization mode for DIC, MEF, ZOM, KET, and NAP, or negative ionization mode, for FLU. The conditions for electrospray ionization were set at 3500 V spray voltage for positive ionization mode and 2500 V spray voltage for negative ionization mode at 400 °C capillary temperature, and 300 °C vaporizer temperature with 40 arbitrary units of nitrogen sheath gas and 10 arbitrary units of auxiliary gas. The MS scan was operated in the positive or negative ionization mode. The selected reaction monitoring (SRM) mode was used, with argon as the collision gas at 1.5 mTorr. The mass resolution was set at 0.7 full-width at half-height (unit resolution). SRM transitions (precursor and product ions) were mass to charge ratios of (m/z) 296 > 214 for DIC (positive ionization mode), 294 > 250 for DIC (negative ionization mode), 242 > 224 for MEF, 292 > 139 for ZOM, 243 > 198 for R- and S-FLU, 255 > 209 for R- and S-KET, 231 > 185 for R- and S-NAP, and 302 > 220 for DIC-d4. The collision energies were 15 V for DIC (negative ionization mode), ZOM, MEF, FLU, KET, and NAP; 35 V for DIC (positive ionization mode); and DIC-d4. The concentrations of NSAIDs were determined from a single-point calibration in every assay for NSAIDs after confirmation of linearity between area and concentrations of NSAIDs.

UGT2B4 = target: T2, UGT2B4 (Homo sapiens, UniProt P06133); experiment: Covalent adduct formation of NSAIDs-AG with UGT2B4; assay type: binding; conditions: 180 μM, UGT 3.4 μM, 6 h
T2 construct: purchased Corning, Inc
T2 sequence (P06133 24-528): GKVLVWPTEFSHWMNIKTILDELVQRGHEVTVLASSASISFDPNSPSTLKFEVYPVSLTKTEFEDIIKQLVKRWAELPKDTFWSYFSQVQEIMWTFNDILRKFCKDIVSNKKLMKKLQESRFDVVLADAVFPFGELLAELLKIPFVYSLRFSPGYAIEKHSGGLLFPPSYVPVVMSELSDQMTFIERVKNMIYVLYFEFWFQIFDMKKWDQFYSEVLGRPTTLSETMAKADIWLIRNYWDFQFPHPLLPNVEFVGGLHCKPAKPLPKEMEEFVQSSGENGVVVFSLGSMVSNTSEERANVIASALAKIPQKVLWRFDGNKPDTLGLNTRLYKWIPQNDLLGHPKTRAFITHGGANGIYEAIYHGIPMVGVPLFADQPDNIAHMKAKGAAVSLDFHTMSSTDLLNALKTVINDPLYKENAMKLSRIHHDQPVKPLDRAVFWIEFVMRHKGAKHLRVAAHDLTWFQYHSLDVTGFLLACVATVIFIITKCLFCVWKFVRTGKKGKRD
Method: as §1

UGT1A1 = target: T3, UGT1A1 (Homo sapiens, UniProt P22309); experiment: Covalent adduct formation of NSAIDs-AG with UGT1A1; assay type: binding; conditions: R vs S diastereomer; 180 μM, UGT 3.4 μM, 6 h
T3 construct: purchased Corning, Inc
T3 sequence (P22309 26-533): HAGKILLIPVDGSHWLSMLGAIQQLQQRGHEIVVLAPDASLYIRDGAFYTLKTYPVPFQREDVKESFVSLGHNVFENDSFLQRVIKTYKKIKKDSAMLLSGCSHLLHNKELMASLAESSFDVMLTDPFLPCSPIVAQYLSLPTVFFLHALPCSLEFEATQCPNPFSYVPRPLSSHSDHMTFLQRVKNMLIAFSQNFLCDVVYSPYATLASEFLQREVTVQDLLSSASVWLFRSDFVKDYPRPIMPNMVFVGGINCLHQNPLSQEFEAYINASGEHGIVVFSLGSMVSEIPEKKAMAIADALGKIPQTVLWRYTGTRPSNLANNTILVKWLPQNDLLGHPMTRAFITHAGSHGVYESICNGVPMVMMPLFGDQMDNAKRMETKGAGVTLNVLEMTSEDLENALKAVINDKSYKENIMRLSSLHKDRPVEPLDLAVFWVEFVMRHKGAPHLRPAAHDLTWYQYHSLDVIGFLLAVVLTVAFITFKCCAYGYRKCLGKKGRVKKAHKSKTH
Method: as §1, with “The conditions for electrospray ionization were set at 3500 V spray voltage for positive ionization mode and 2500 V spray voltage for negative ionization mode at 400 °C capillary temperature, and 300 °C vaporizer temperature with 40 arbitrary units of nitrogen sheath gas and 10 arbitrary units of auxiliary gas. The MS scan was operated in the positive or negative ionization mode. The selected reaction monitoring (SRM) mode was used, with argon as the collision gas at 1.5 mTorr. The mass resolution was set at 0.7 full-width at half-height (unit resolution). SRM transitions (precursor and product ions) were mass to charge ratios of (m/z) 296 > 214 for DIC (positive ionization mode), 294 > 250 for DIC (negative ionization mode), 242 > 224 for MEF, 292 > 139 for ZOM, 243 > 198 for R- and S-FLU, 255 > 209 for R- and S-KET, 231 > 185 for R- and S-NAP, and 302 > 220 for DIC-d4. The collision energies were 15 V for DIC (negative ionization mode), ZOM, MEF, FLU, KET, and NAP; 35 V for DIC (positive ionization mode); and DIC-d4.” left out

UGT1A9 = target: T4, UGT1A9 (Homo sapiens, UniProt O60656); experiment: Covalent adduct formation of NSAIDs-AG with UGT1A9; assay type: binding; conditions: R vs S diastereomer; 180 μM, UGT 3.4 μM, 6 h
T4 construct: purchased Corning, Inc
T4 sequence (O60656 26-530): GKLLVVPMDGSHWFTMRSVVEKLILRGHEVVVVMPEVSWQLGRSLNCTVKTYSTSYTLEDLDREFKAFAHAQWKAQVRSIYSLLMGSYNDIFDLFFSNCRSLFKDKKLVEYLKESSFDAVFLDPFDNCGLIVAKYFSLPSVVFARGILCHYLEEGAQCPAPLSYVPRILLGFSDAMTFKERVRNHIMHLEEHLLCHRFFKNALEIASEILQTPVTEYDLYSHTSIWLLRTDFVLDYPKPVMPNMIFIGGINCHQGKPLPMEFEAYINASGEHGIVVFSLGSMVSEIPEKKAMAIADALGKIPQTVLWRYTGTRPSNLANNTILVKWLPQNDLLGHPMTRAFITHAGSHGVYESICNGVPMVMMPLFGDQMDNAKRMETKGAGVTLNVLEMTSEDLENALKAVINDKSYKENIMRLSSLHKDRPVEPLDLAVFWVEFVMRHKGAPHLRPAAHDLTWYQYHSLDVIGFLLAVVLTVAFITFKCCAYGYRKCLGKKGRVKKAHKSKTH
Method: as §1, with “The conditions for electrospray ionization were set at 3500 V spray voltage for positive ionization mode and 2500 V spray voltage for negative ionization mode at 400 °C capillary temperature, and 300 °C vaporizer temperature with 40 arbitrary units of nitrogen sheath gas and 10 arbitrary units of auxiliary gas. The MS scan was operated in the positive or negative ionization mode. The selected reaction monitoring (SRM) mode was used, with argon as the collision gas at 1.5 mTorr. The mass resolution was set at 0.7 full-width at half-height (unit resolution). SRM transitions (precursor and product ions) were mass to charge ratios of (m/z) 296 > 214 for DIC (positive ionization mode), 294 > 250 for DIC (negative ionization mode), 242 > 224 for MEF, 292 > 139 for ZOM, 243 > 198 for R- and S-FLU, 255 > 209 for R- and S-KET, 231 > 185 for R- and S-NAP, and 302 > 220 for DIC-d4. The collision energies were 15 V for DIC (negative ionization mode), ZOM, MEF, FLU, KET, and NAP; 35 V for DIC (positive ionization mode); and DIC-d4.” left out

[1] = set-up: method as in PMID 20606003, PMID 1673415; conditions: phosphate buffers (pH 7.4); cited from earlier work

Row | Structure (SMILES) | amounts of covalent adducts with UGT2B (UGT2B7) relative to UGT1A isoforms (UGT2B7) | amounts of covalent adducts with UGT2B (UGT2B4) relative to UGT1A isoforms (UGT2B4) | covalent adduct formation with UGT1A1 compared with the other diastereomer (UGT1A1) | covalent adduct formation with UGT2B7 compared with the other diastereomer (UGT2B7) | covalent adduct formation with UGT1A9 compared with the other diastereomer (UGT1A9) | amounts of covalent adducts with UGT2B7 compared with UGT1A9 (UGT2B7) | covalent adduct formation with UGT2B7 (UGT2B7; 37 °C) | half-lives in buffers [1]
1 | CC(C(=O)OC1OC(C(=O)O)C(O)C(O)C1O)c1ccc(-c2ccccc2)c(F)c1 (stereo not shown) [R-FLU-AG] | relatively higher amounts of covalent adducts | relatively higher amounts of covalent adducts |  |  |  |  |  | 
2 | COc1ccc2cc(C(C)C(=O)OC3OC(C(=O)O)C(O)C(O)C3O)ccc2c1 (stereo not shown) [R-NAP-AG] | relatively higher amounts of covalent adducts | relatively higher amounts of covalent adducts | significantly more covalent adducts | significantly more covalent adducts | significantly more covalent adducts |  |  | 
3 | CC(C(=O)OC1OC(C(=O)O)C(O)C(O)C1O)c1ccc(-c2ccccc2)c(F)c1 (stereo not shown) [S-FLU-AG] |  |  | significantly higher | significantly higher | significantly higher |  |  | 
4 | Cc1cc(CC(=O)O[C@@H]2O[C@H](C(=O)O)[C@@H](O)[C@H](O)[C@H]2O)n(C)c1C(=O)c1ccc(Cl)cc1 [ZOM-AG] |  |  |  |  |  | significantly higher amounts of covalent adducts | higher amounts of covalent adducts | relatively short half-lives

Reference: paper PMC9104950, “Stereoselective Covalent Adduct Formation of Acyl Glucuronide Metabolite of Nonsteroidal Anti-Inflammatory Drugs with UDP-Glucuronosyltransferase” (International Journal of Molecular Sciences, 2022)
